Values quoted from earlier work in US20190046468A1 (SUN PHARMACEUTICAL INDUSTRIES LIMITED, priority 2017, published 2019).

Tests used:
[1] = aqueous media and many other solvents including acetone
[2] = in vivo

For `COc1ccccc1OCC(O)CO` (centres unmarked) [Guaifenesin], the solubility [1] is listed as “freely soluble” and the plasma half-life [2] is listed as “about 1 hour”.
